Assay results published in US20210038682A1, “MODULATORS OF SMALL CONDUCTANCE CALCIUM ACTIVATED K+ CHANNELS AND PHARMACEUTICAL COMPOSITIONS FOR USE IN THE TREATMENT OF LESIONAL VESTIBULAR DISORDERS” (priority 2018, published 2021).

Assays:
UVN adult female rats [1] = assay: Subjective scoring of vestibular syndrome severity in the rat unilateral vestibular neurectomy model; type: in vivo
Protocol: (§1) A unilateral vestibular neurectomy (UVN) was performed on adult female rats in order to induce unilateral vestibulopathy. Then, the small conductance calcium activated K^+ channels antagonists apamin, AG525E1 and NS8593 were administered intraperitoneally to UVN animals in double blind conditions once a day for 4 days, i.e. during the acute phase of the syndrome. It was then assessed the severity of posturo-locomotor deficits using appropriate behavior tests for 10 days after UVN. Subjective scoring of the vestibular syndrome was carried out according to the method previously published (Péricat et al. 2017; Tighilet et al. 2017). […]

UVN adult female rats [2] = assay: Posturo-locomotor behavior tests (velocity, distance, immobility, meander) in the rat unilateral vestibular neurectomy model; type: in vivo; settings: AG525E1 10 mg/kg i.p., from day 1
Protocol: as §1

[3] = systemic administration; cited from earlier work

COc1cc2c(cc1OC)C(CCCC1c3cc(OC)c(OC)cc3CCN1C)N(C)CC2 (stereo not shown) [AG525E1, 1,1′-(propane-1,3-diyl)-bis-(6,7-dimethoxy-2-methyl-1,2,3,4-tetrahydroisoquinoline)]
Vestibular syndrome severity (UVN adult female rats [1]; AG525E1 10 mg/kg i.p. once a day for 4 days, at day 1, p<0.05 vs negative control): significant decreased vestibular syndrome | Immobility time (UVN adult female rats [2]): tendency to reduce immobility time

Cl.c1ccc2c(c1)CCC[C@H]2Nc1nc2ccccc2[nH]1 [NS8593, N-[(1R)-1,2,3,4-Tetrahydro-1-naphthalenyl]-1H-benzimidazol-2-amine hydrochloride]
Vestibular syndrome severity (UVN adult female rats [1]; NS8593 30 mg/kg i.p. once a day for 4 days, at day 1 and day 2, p<0.05 vs negative control): significant decreased vestibular syndrome

CC(C)C[C@@H]1NC(=O)[C@H](C)NC(=O)[C@H]([C@@H](C)O)NC(=O)[C@H](CCC(=O)O)NC(=O)[C@@H]2CCCN2C(=O)[C@H](C)NC(=O)[C@H](CCCCN)NC(=O)[C@@H]2CSSC[C@@H](C(=O)N[C@@H](CCC(N)=O)C(=O)N[C@@H](CCC(N)=O)C(=O)N[C@@H](Cc3cnc[nH]3)C(N)=O)NC(=O)[C@H](CCCNC(=N)N)NC(=O)[C@H](CCCNC(=N)N)NC(=O)[C@H](C)NC(=O)[C@H](CSSC[C@H](N)C(=O)N[C@@H](CC(N)=O)C(=O)N2)NC1=O [apamin]
Blood-brain barrier crossing [3]: cross the blood-brain barrier
